These are literature values, as cited in patent US20120015880A1 (priority 2008, published 2012).

Where two headings read alike, the source gives them in different places.

For the series the following is noted: in vivo.

As for `NC(=O)CC[C@@H]1NC(=O)[C@H](Cc2ccccc2)NC(=O)[C@H](Cc2ccc(O)cc2)NC(=O)CCSSC[C@@H](C(=O)N2CCC[C@H]2C(=O)N[C@H](CCCN=C(N)N)C(=O)NCC(N)=O)NC(=O)[C@H](CC(N)=O)NC1=O` [desmopressin, 1-desamino-8-D-arginine vasopressin], the bioavailability is, setting by setting: (human) ~100%; (human, inhaled or intranasal) 3-5%; (po) “far less than one percent”. In addition, the half life (human) was ~1.5 h. Besides, the “range of Cmax between patients” value (human, inhaled or intranasal) is listed as 6-10 fold.
